What all share (type): functional
For assay [1], the system named is Pseudomonas aeruginosa. In words: Antimicrobial activity against Pseudomonas aeruginosa isolate 22843 expressing VIM-2 beta lactamase gene by Etest.
The subject of assay [2] is Pseudomonas aeruginosa. In words: Antimicrobial activity against Pseudomonas aeruginosa isolate 27135 expressing VIM-2 beta lactamase gene by Etest.
Assay [3] deals with Pseudomonas aeruginosa. The assay can be described thus: Antimicrobial activity against Pseudomonas aeruginosa isolate 26285 expressing IMP-13 beta lactamase gene by Etest.
Assay [4] relates to Pseudomonas aeruginosa. The assay can be described thus: Antimicrobial activity against Pseudomonas aeruginosa isolate M136074 expressing IMP-22 beta lactamase gene by Etest.
For assay [5], the system named is Pseudomonas aeruginosa. The assay can be described thus: Antimicrobial activity against Pseudomonas aeruginosa isolate M136074 expressing IMP-22 beta lactamase gene by Etest in presence of clavulanate.
Assay [6] deals with Pseudomonas aeruginosa. In words: Antimicrobial activity against Pseudomonas aeruginosa isolate 27135 expressing VIM-2 beta lactamase gene by Etest in presence of clavulanate.
For assay [7], the system named is Pseudomonas aeruginosa. The assay can be described thus: Antimicrobial activity against Pseudomonas aeruginosa isolate 26285 expressing IMP-13 beta lactamase gene by Etest in presence of clavulanate.
Assay [8] relates to Pseudomonas aeruginosa. The assay can be described thus: Antimicrobial activity against Pseudomonas aeruginosa isolate 22843 expressing VIM-2 beta lactamase gene by Etest in presence of clavulanate.
In assay [9] the test system is Pseudomonas aeruginosa. In words: Antimicrobial activity against Pseudomonas aeruginosa isolate 27135 expressing VIM-2 beta lactamase gene by Etest in presence of Tazobactam.
For assay [10], the system named is Pseudomonas aeruginosa. In words: Antimicrobial activity against Pseudomonas aeruginosa isolate 22843 expressing VIM-2 beta lactamase gene by Etest in presence of Tazobactam.
Assay [11] relates to Pseudomonas aeruginosa. The assay can be described thus: Antimicrobial activity against Pseudomonas aeruginosa isolate M136074 expressing IMP-22 beta lactamase gene by Etest in presence of Tazobactam.
Assay [12] relates to Pseudomonas aeruginosa. In words: Antimicrobial activity against Pseudomonas aeruginosa isolate 26285 expressing IMP-13 beta lactamase gene by Etest in presence of Tazobactam.

Converted amounts (≈) assume the structure as drawn.

This note sets out measurements from ChEMBL document CHEMBL1649164, “First organisms with acquired metallo-beta-lactamases (IMP-13, IMP-22, and VIM-2) reported in Austria” (2009).

For the compound `O=C(O)c1cn(C2CC2)c2cc(N3CCNCC3)c(F)cc2c1=O` [CIPROFLOXACIN], the MIC (in general, the lowest concentration that inhibits growth of the organism) was above 32 µg/mL against Pseudomonas aeruginosa [1], above 32 µg/mL against Pseudomonas aeruginosa [2], above 32 µg/mL with Pseudomonas aeruginosa [3] and 32 µg/mL (≈ 96.6 µM) with Pseudomonas aeruginosa [4].

For `C[C@@H](O)[C@H]1C(=O)N2C(C(=O)O)=C(S[C@@H]3CN[C@H](C(=O)N(C)C)C3)[C@H](C)[C@H]12` [MEROPENEM], the minimal inhibitory concentration (MIC) was above 32 µg/mL with Pseudomonas aeruginosa [1], above 32 µg/mL against Pseudomonas aeruginosa [2], above 32 µg/mL in the assay with Pseudomonas aeruginosa [3] and 24 µg/mL (≈ 62.6 µM) in the assay on Pseudomonas aeruginosa [4].

For `C[C@@H](O)[C@H]1C(=O)N2C(C(=O)O)=C(SCCNC=N)C[C@H]12` [IMIPENEM ANHYDROUS], the MIC is above 32 µg/mL against Pseudomonas aeruginosa [1], above 32 µg/mL against Pseudomonas aeruginosa [2], above 32 µg/mL in the assay on Pseudomonas aeruginosa [3] and 12 µg/mL (≈ 40.1 µM) in the assay on Pseudomonas aeruginosa [4].

With `C[C@H]1[C@H](NC(=O)/C(=N\OC(C)(C)C(=O)O)c2csc(N)n2)C(=O)N1S(=O)(=O)O` [AZTREONAM], the MIC in the assay on Pseudomonas aeruginosa [1] was 12 µg/mL (≈ 27.6 µM); against Pseudomonas aeruginosa [2], 12 µg/mL (≈ 27.6 µM); with Pseudomonas aeruginosa [3] it was 12 µg/mL (≈ 27.6 µM); in the assay with Pseudomonas aeruginosa [4], 4 µg/mL (≈ 9.19 µM).

As to `NC[C@H]1O[C@H](O[C@H]2[C@H](O)[C@@H](O[C@H]3O[C@H](CO)[C@@H](O)[C@H](N)[C@H]3O)[C@H](N)C[C@@H]2N)[C@H](N)C[C@@H]1O` [TOBRAMYCIN], the minimum inhibitory concentration (MIC) with Pseudomonas aeruginosa [1] is above 256 µg/mL; against Pseudomonas aeruginosa [2], above 256 µg/mL; with Pseudomonas aeruginosa [3], 128 µg/mL (≈ 274 µM); in the assay with Pseudomonas aeruginosa [4], 2 µg/mL (≈ 4.28 µM).

As for `CO/N=C(\C(=O)N[C@@H]1C(=O)N2C(C(=O)O)=C(COC(C)=O)CS[C@H]12)c1csc(N)n1` [CEFOTAXIME], the minimal inhibitory concentration (MIC) in the assay with Pseudomonas aeruginosa [1], in the assay with Pseudomonas aeruginosa [2], in the assay with Pseudomonas aeruginosa [3] and in the assay on Pseudomonas aeruginosa [4] was above 256 µg/mL each time.

In the case of `NCC[C@H](O)C(=O)N[C@@H]1C[C@H](N)[C@@H](O[C@H]2O[C@H](CN)[C@@H](O)[C@H](O)[C@H]2O)[C@H](O)[C@H]1O[C@H]1O[C@H](CO)[C@@H](O)[C@H](N)[C@H]1O` [AMIKACIN], the MIC in the assay with Pseudomonas aeruginosa [1] is above 256 µg/mL; against Pseudomonas aeruginosa [2], above 256 µg/mL; against Pseudomonas aeruginosa [3], 24 µg/mL (≈ 41 µM); against Pseudomonas aeruginosa [4], 6 µg/mL (≈ 10.2 µM).

Regarding COLISTIN, the MIC turned out to be 4 µg/mL with Pseudomonas aeruginosa [1], 4 µg/mL against Pseudomonas aeruginosa [2], 6 µg/mL with Pseudomonas aeruginosa [3] and 6 µg/mL in the assay on Pseudomonas aeruginosa [4].

`CC(C)(O/N=C(\C(=O)N[C@@H]1C(=O)N2C(C(=O)[O-])=C(C[n+]3ccccc3)CS[C@H]12)c1csc(N)n1)C(=O)O` [CEFTAZIDIME]: the MIC is 12 µg/mL (≈ 22 µM) against Pseudomonas aeruginosa [1], 12 µg/mL (≈ 22 µM) against Pseudomonas aeruginosa [2], above 256 µg/mL against Pseudomonas aeruginosa [3] and above 256 µg/mL in the assay on Pseudomonas aeruginosa [4].

As for `CO/N=C(\C(=O)N[C@@H]1C(=O)N2C(C(=O)[O-])=C(C[N+]3(C)CCCC3)CS[C@H]12)c1csc(N)n1` [CEFEPIME], the MIC in the assay on Pseudomonas aeruginosa [2] came out at 24 µg/mL (≈ 49.9 µM); in the assay with Pseudomonas aeruginosa [3], 128 µg/mL (≈ 266 µM); against Pseudomonas aeruginosa [4], 128 µg/mL (≈ 266 µM).

In the case of `CC1(C)S[C@@H]2[C@H](NC(=O)[C@H](C(=O)O)c3ccsc3)C(=O)N2[C@H]1C(=O)O` [TICARCILLIN], the MIC against Pseudomonas aeruginosa [1], in the assay with Pseudomonas aeruginosa [5], in the assay with Pseudomonas aeruginosa [2], in the assay with Pseudomonas aeruginosa [6], in the assay with Pseudomonas aeruginosa [3] and with Pseudomonas aeruginosa [7] was above 256 µg/mL throughout. Besides, the MIC in the assay on Pseudomonas aeruginosa [4] and with Pseudomonas aeruginosa [8] was above 256 µg/mL each time.

For the compound `CCN1CCN(C(=O)N[C@@H](C(=O)N[C@@H]2C(=O)N3[C@@H]2SC(C)(C)[C@@H]3C(=O)O)c2ccccc2)C(=O)C1=O` [PIPERACILLIN], the MIC in the assay with Pseudomonas aeruginosa [1] came to 32 µg/mL (≈ 61.8 µM); in the assay with Pseudomonas aeruginosa [9], 32 µg/mL; in the assay on Pseudomonas aeruginosa [10], 32 µg/mL; in the assay on Pseudomonas aeruginosa [11] it was 8 µg/mL; with Pseudomonas aeruginosa [2], 32 µg/mL (≈ 61.8 µM); with Pseudomonas aeruginosa [12], 16 µg/mL. The MIC in the assay on Pseudomonas aeruginosa [3] worked out at 16 µg/mL (≈ 30.9 µM); in the assay on Pseudomonas aeruginosa [4], 12 µg/mL (≈ 23.2 µM).

GENTAMICIN: the MIC in the assay with Pseudomonas aeruginosa [1] was 8 µg/mL; in the assay with Pseudomonas aeruginosa [2], 8 µg/mL; against Pseudomonas aeruginosa [3], above 256 µg/mL; against Pseudomonas aeruginosa [4], 4 µg/mL.
